Assay results: ChEMBL document CHEMBL2046291, “Potent inhibition of norovirus 3CL protease by peptidyl α-ketoamides and α-ketoheterocycles” (Bioorg Med Chem Lett, 2012)

What was measured:
[1] = Inhibition of Norovirus recombinant 3CL protease using Edans-EPDFHLQGPEDLAK-Dabcyl as substrate for 30 mins by fluorometry
Norovirus = assay: Antiviral activity against Norovirus infected in human HG23 cells; type: functional; details: read-out: ED50 (the source's name)

| IC50 [1] | EC50 (Norovirus) | Structure (SMILES) |
| --- | --- | --- |
| > 50 µM | > 10 µM | CC(C)C[C@H](NC(=O)OCc1ccccc1)C(=O)N[C@@H](CC1CCNC1=O)C(O)C(=O)NC1CC1 (stereo not given in full) |
| 3.4 µM | 1.1 µM | CC(C)C[C@H](NC(=O)OCc1ccccc1)C(=O)N[C@@H](CC1CCNC1=O)C(=O)C(=O)NC1CC1 (stereo not given in full) |
| 4.1 µM | 1.3 µM | CCCCNC(=O)C(=O)[C@H](CC1CCNC1=O)NC(=O)[C@H](CC(C)C)NC(=O)OCc1ccccc1 (stereo not given in full) |
| > 50 µM | > 10 µM | CCOC(=O)CNC(=O)C(O)[C@H](CC1CCNC1=O)NC(=O)[C@H](CC(C)C)NC(=O)OCc1ccccc1 (stereo not given in full) |
| > 50 µM | > 20 µM | CC(C)C[C@H](NC(=O)OCc1ccccc1)C(=O)N[C@@H](CC1CCNC1=O)C(O)C(=O)NC1CCCCC1 (stereo not given in full) |
| > 50 µM | > 20 µM | CC(C)C[C@H](NC(=O)OCc1ccccc1)C(=O)N[C@@H](CC1CCNC1=O)C(O)C(=O)NCc1ccccc1 (stereo not given in full) |
| 23.1 µM | 6.3 µM | CC(C)NC(=O)C(O)[C@H](CC1CCNC1=O)NC(=O)[C@H](Cc1ccccc1)NC(=O)OCc1ccccc1 (stereo not given in full) |
| 21.5 µM | 4.2 µM | CC(C)NC(=O)C(=O)[C@H](CC1CCNC1=O)NC(=O)[C@H](Cc1ccccc1)NC(=O)OCc1ccccc1 (stereo not given in full) |
| > 50 µM | > 20 µM | CC(C)C[C@H](NC(=O)OCc1ccccc1)C(=O)N[C@@H](CC1CCNC1=O)C(O)c1ncco1 (stereo not given in full) |

The next lines start with the molecule.

| Structure (SMILES) | IC50 [1] | EC50 (Norovirus) |
| --- | --- | --- |
| CC(C)C[C@H](NC(=O)OCc1ccccc1)C(=O)N[C@@H](CC1CCNC1=O)C(=O)C(=O)NC(C)C (stereo not given in full) | 5.3 µM | 2.8 µM |
| CC(C)C[C@H](NC(=O)OCc1ccccc1)C(=O)N[C@@H](CC1CCNC1=O)C(=O)C(=O)NCc1ccccc1 (stereo not given in full) | 7.1 µM | 1.8 µM |
| CC(C)C[C@H](NC(=O)OCc1ccccc1)C(=O)N[C@@H](CC1CCNC1=O)C(O)C(=O)NC(C)C (stereo not given in full) | 45.3 µM | 4.1 µM |
| CCCCNC(=O)C(O)[C@H](CC1CCNC1=O)NC(=O)[C@H](CC(C)C)NC(=O)OCc1ccccc1 (stereo not given in full) | > 50 µM | > 20 µM |
| CCOC(=O)CNC(=O)C(=O)[C@H](CC1CCNC1=O)NC(=O)[C@H](CC(C)C)NC(=O)OCc1ccccc1 (stereo not given in full) | 2.1 µM | 0.8 µM |
| CC(C)C[C@H](NC(=O)OCc1ccccc1)C(=O)N[C@@H](CC1CCNC1=O)C(=O)C(=O)NC1CCCCC1 (stereo not given in full) | 3.5 µM | 1.2 µM |
| CC(C)C[C@H](NC(=O)OCc1ccccc1)C(=O)N[C@@H](CC1CCNC1=O)C(O)C(=O)NC(C)(C)C (stereo not given in full) | > 50 µM | > 20 µM |
| CC(C)C[C@H](NC(=O)OCc1ccccc1)C(=O)N[C@@H](CC1CCNC1=O)C(=O)C(=O)NC(C)(C)C (stereo not given in full) | 2.8 µM | 1.1 µM |
| CC(C)C[C@H](NC(=O)OCc1ccccc1)C(=O)N[C@@H](CC1CCNC1=O)C(=O)c1ncco1 (stereo not given in full) | 2.3 µM | 0.9 µM |
| CC(C)C[C@H](NC(=O)OCc1ccccc1)C(=O)N[C@@H](CC1CCNC1=O)C(O)c1nccs1 (stereo not given in full) | 12.3 µM | 4.3 µM |
| CC(C)C[C@H](NC(=O)OCc1ccccc1)C(=O)N[C@@H](CC1CCNC1=O)C(=O)c1nccs1 (stereo not given in full) | 8.8 µM | 4.2 µM |
